Numbered stars: 1 amine (or outer) side, 2 acyl side, 3 side chain; on linkers, the order of the positions; unused ones are H or OH. Square brackets hold non-standard residues; d marks the D form. Peptide text beside a SMILES is read from it. * marks the point of attachment. DOTA = O=C(O)CN1CCN(CC(=O)O)CCN(CC(=O)*)CCN(CC(=O)O)CC1; Gly(N-(3-F-4-Me-benzyl)) = Cc1ccc(CNCC(=O)*)cc1F; Acetyl(2-(HOCH2CH2OCH2CH2O)) = O=C(COCCOCCO)*; Phe(4-CN) = N#Cc1ccc(C[C@H](N)C(=O)O)cc1; X3 = CNC(=N)N1CCC(N[*:1])(C(=O)[*:2])CC1; Phe(3-F) = N[C@@H](Cc1cccc(F)c1)C(=O)O; 2Nal = N[C@@H](Cc1ccc2ccccc2c1)C(=O)O; Trx = NC[C@H]1CC[C@H](C(=O)O)CC1; X1 = O=C(CN1CCC(N[*:1])CC1)[*:2]; d4Pal = N[C@H](Cc1ccncc1)C(=O)O; 4Abz = Nc1ccc(C(=O)O)cc1; Api = NC1(C(=O)O)CCNCC1; AEEA = NCCOCCOCC(=O)O; Ahx = NCCCCCC(=O)O; azaGly = NNC(=O)O
Target: human kisspeptin receptor (Homo sapiens (Human), UniProt Q969F8)
Sequence (Q969F8 whole entry): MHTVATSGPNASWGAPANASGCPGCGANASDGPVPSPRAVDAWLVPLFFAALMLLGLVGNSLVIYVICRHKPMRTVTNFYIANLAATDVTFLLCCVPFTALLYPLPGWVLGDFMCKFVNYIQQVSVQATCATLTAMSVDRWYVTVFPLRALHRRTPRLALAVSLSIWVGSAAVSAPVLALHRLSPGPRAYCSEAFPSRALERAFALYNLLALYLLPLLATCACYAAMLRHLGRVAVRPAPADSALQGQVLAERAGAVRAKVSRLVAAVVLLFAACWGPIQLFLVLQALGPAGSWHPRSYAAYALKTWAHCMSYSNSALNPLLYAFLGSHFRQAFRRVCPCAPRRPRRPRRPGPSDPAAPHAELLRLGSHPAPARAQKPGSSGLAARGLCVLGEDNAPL
Experiment: Human KISS1R binding assay (membrane competition binding)
Conditions: 90 min at room temperature; competition with 0.2 nM [125I]-metastin (45-54); Flp-In T-Rex 293 kisspeptin membranes; metal complexes nonradioactive Ga, In, Lu; read-out: hKiSSR Binding Ki (90 min)
Experimental: Crude membrane fractions are prepared from Flp-In T-Rex 293 (Thermo Fisher) cell line expressing the human kisspeptin receptor. The cells are grown to 85-100% confluence on standard tissue culture dishes in Dulbecco's Modified Eagles Medium (DMEM) (Corning) supplemented with 10% FBS (Gemini), 1% penicillin-streptomycin-glutamine (Gibco), 500 μg/mL hygromycin, and 15 μg/mL blastacidin. 48 hrs prior to preparing membranes 10 μg/ml of tetracycline is added to the culture media to induce receptor expression. To prepare membranes, cells are scraped and collected in 1× Dulbecco's phosphate buffered saline (Corning) and then pelleted at 1000 RPMs. The cell pellet is reconstituted in membrane preparation buffer (20 mM HEPES, 6 mM MgCl2 and 1 mM EGTA, protease inhibitor tablets (Pierce), pH 7.4) and placed in a cell disruption vessel (Parr Instrument company) at 1000 PSI for 30 min on ice. The pressurized contents are then released and spun down at 1000 RPMs and the supernatant is collected and further centrifuged at 15,000 RPMs to pellet the membranes. The membrane pellet is resuspended in membrane preparation buffer, snap frozen and stored at −80° C. for later use.
The human kisspeptin membrane binding assay utilizes the following components: radiolabel [^125I]-metastin (45-54) (human) (Perkinhmer), crude Flp-In T-Rex 293 kisspeptin membranes, and competing small molecule and peptide ligands. The assay is initiated by combining in assay buffer (50 mM TrisHCl, 5 mM MgCl2, 2 mM EGTA, 10 mM CaCl2, 0.1% BSA, pH 7.4) a dose response of competing ligand (final concentrations are typically 0-10,000 nM), 5-10 μg of Flp-In T-Rex 293 kisspeptin membranes, and 0.2 n M [^125I]-metastin (45-54) in a 96-well assay plate and allowed to incubate 90 minutes at room temperature. Assay contents are then filtered through unifilter CF/C: microplates (PerkinElmer) pre-soaked with 0.5% BSA and washed with 9×400 μL of cold wash buffer (10 mM HEPES, 500 mM NaCl, 0.1% Tween-20, pH7.4). Assay plates are read using a Microbeta^2 (PerkinElmer) and Ki values for compounds are determined using a GraphPad Prism 9.3 non-linear regression analysis.

SMILES | Ki [nM]
Cc1ccc(CNCC(=O)N2CCC(NC(=O)[C@H](CC(C)C)NC(=O)NNC(=O)[C@H](Cc3ccccc3)NC(=O)[C@@H](NC(=O)[C@H](CC(N)=O)NC(=O)[C@@H](Cc3ccncc3)NC(=O)[C@@H](Cc3ccc(O)cc3)NC(=O)CCCCCNC(=O)CN3CCN(CC(=O)O)CCN(CC(=O)O)CCN(CC(=O)O)CC3)[C@@H](C)O)(C(=O)N[C@@H](Cc3c[nH]c4ccccc34)C(N)=O)CC2)cc1F [Compound 31] ({DOTA-Ahx}-[dY][d4Pal]NTF[azaGly]L[Api](Gly(N-(3-F-4-Me-benzyl)))W-NH2) | < 10
Cc1ccc(CNCC(=O)N2CCC(NC(=O)[C@H](CC(C)C)NC(=O)NNC(=O)[C@H](Cc3ccccc3)NC(=O)[C@@H](NC(=O)[C@H](CC(N)=O)NC(=O)[C@@H](Cc3c[nH]c4ccccc34)NC(=O)[C@@H](Cc3c[nH]cn3)NC(=O)[C@@H](Cc3ccc(O)cc3)NC(=O)CCCCCNC(=O)CN3CCN(CC(=O)O)CCN(CC(=O)O)CCN(CC(=O)O)CC3)[C@@H](C)O)(C(=O)N[C@@H](Cc3c[nH]c4ccccc34)C(N)=O)CC2)cc1F [Compound 32] ({DOTA-Ahx}-[dY][dH][dW]NTF[azaGly]L[Api](Gly(N-(3-F-4-Me-benzyl)))W-NH2) | < 10
Cc1ccc(CNCC(=O)N2CCC(NC(=O)[C@H](CC(C)C)NC(=O)NNC(=O)[C@H](Cc3ccccc3)NC(=O)[C@@H](NC(=O)[C@H](CC(N)=O)NC(=O)[C@@H](Cc3c[nH]c4ccccc34)NC(=O)[C@@H](Cc3c[nH]cn3)NC(=O)[C@@H](Cc3ccc(O)cc3)NC(=O)CN3CCC(NC(=O)CN4CCN(CC(=O)O)CCN(CC(=O)O)CCN(CC(=O)O)CC4)CC3)[C@@H](C)O)(C(=O)N[C@@H](Cc3c[nH]c4ccccc34)C(N)=O)CC2)cc1F [Compound 33] ({DOTA}-[X1][dY][dH][dW]NTF[azaGly]L[Api](Gly(N-(3-F-4-Me-benzyl)))W-NH2) | < 10
Cc1ccc(CNCC(=O)N2CCC(NC(=O)[C@H](CC(C)C)NC(=O)NNC(=O)[C@H](Cc3cccc(F)c3)NC(=O)[C@@H](NC(=O)[C@H](CC(N)=O)NC(=O)[C@H](Cc3c[nH]c4ccccc34)NC(=O)[C@@H](Cc3ccc(O)cc3)NC(=O)CCCCCNC(=O)CN3CCN(CC(=O)O)CCN(CC(=O)O)CCN(CC(=O)O)CC3)[C@@H](C)O)(C(=O)N[C@@H](Cc3c[nH]c4ccccc34)C(N)=O)CC2)cc1F [Compound 35] ({DOTA-Ahx}-[dY]WNT[Phe(3-F)][azaGly]L[Api](Gly(N-(3-F-4-Me-benzyl)))W-NH2) | < 10
Cc1ccc(CNCC(=O)N2CCC(NC(=O)[C@H](CC(C)C)NC(=O)NNC(=O)[C@H](Cc3cccc(F)c3)NC(=O)[C@@H](NC(=O)[C@H](CC(N)=O)NC(=O)[C@H](CCC(=O)O)NC(=O)[C@@H](Cc3ccc(O)cc3)NC(=O)CCCCCNC(=O)CN3CCN(CC(=O)O)CCN(CC(=O)O)CCN(CC(=O)O)CC3)[C@@H](C)O)(C(=O)N[C@@H](Cc3c[nH]c4ccccc34)C(N)=O)CC2)cc1F [Compound 36] ({DOTA-Ahx}-[dY]ENT[Phe(3-F)][azaGly]L[Api](Gly(N-(3-F-4-Me-benzyl)))W-NH2) | < 10
Cc1ccc(CNCC(=O)N2CCC(NC(=O)[C@H](CC(C)C)NC(=O)NNC(=O)[C@H](Cc3ccccc3)NC(=O)[C@@H](N)CCCCNC(=O)CN3CCN(CC(=O)O)CCN(CC(=O)O)CCN(CC(=O)O)CC3)(C(=O)N[C@@H](Cc3c[nH]c4ccccc34)C(N)=O)CC2)cc1F [Compound 37] (H-K(DOTA)F[azaGly]L[Api](Gly(N-(3-F-4-Me-benzyl)))W-NH2) | < 10
Cc1ccc(CNCC(=O)N2CCC(NC(=O)[C@H](CC(C)C)NC(=O)NNC(=O)[C@H](Cc3ccccc3)NC(=O)[C@H]3CC[C@H](CNC(=O)CCCCCNC(=O)CN4CCN(CC(=O)O)CCN(CC(=O)O)CCN(CC(=O)O)CC4)CC3)(C(=O)N[C@@H](Cc3c[nH]c4ccccc34)C(N)=O)CC2)cc1F [Compound 38] ({DOTA-Ahx-Trx}-F[azaGly]L[Api](Gly(N-(3-F-4-Me-benzyl)))W-NH2) | > 100
Cc1ccc(CNCC(=O)N2CCC(NC(=O)[C@H](CC(C)C)n3cc([C@H](Cc4ccccc4)NC(=O)[C@H](N)CCCCNC(=O)CN4CCN(CC(=O)O)CCN(CC(=O)O)CCN(CC(=O)O)CC4)nn3)(C(=O)N[C@@H](Cc3c[nH]c4ccccc34)C(N)=O)CC2)cc1F [Compound 39] | > 100
Cc1ccc(CNCC(=O)N2CCC(NC(=O)[C@H](CC(C)C)NC(=O)NNC(=O)[C@H](Cc3ccccc3)NC(=O)CN3CCN(CC(=O)O)CCN(CC(=O)O)CCN(CC(=O)O)CC3)(C(=O)N[C@@H](Cc3c[nH]c4ccccc34)C(N)=O)CC2)cc1F [Compound 49] ({DOTA}-F[azaGly]L[Api](Gly(N-(3-F-4-Me-benzyl)))W-NH2) | > 100
Cc1ccc(CNCC(=O)N2CCC(NC(=O)[C@H](CC(C)C)NC(=O)NNC(=O)[C@H](Cc3ccccc3)NC(=O)c3ccc(NC(=O)CN4CCN(CC(=O)O)CCN(CC(=O)O)CCN(CC(=O)O)CC4)cc3)(C(=O)N[C@@H](Cc3c[nH]c4ccccc34)C(N)=O)CC2)cc1F [Compound 50] ({DOTA-4Abz}-F[azaGly]L[Api](Gly(N-(3-F-4-Me-benzyl)))W-NH2) | < 10

Continued, values first:

Ki [nM] | SMILES
< 10 | Cc1ccc(CNCC(=O)N2CCC(NC(=O)[C@@H](/C=C/CNC(=O)[C@H](Cc3ccccc3)NC(=O)CCCCCNC(=O)CN3CCN(CC(=O)O)CCN(CC(=O)O)CCN(CC(=O)O)CC3)CC(C)C)(C(=O)N[C@@H](Cc3c[nH]c4ccccc34)C(N)=O)CC2)cc1F [Compound 51]
< 10 | Cc1ccc(CNCC(=O)N2CCC(NC(=O)[C@H](CC(C)C)NC(=O)NNC(=O)[C@H](Cc3ccccc3)NC(=O)CCCCCNC(=O)CN3CCN(CC(=O)O)CCN(CC(=O)O)CCN(CC(=O)O)CC3)(C(=O)N[C@@H](Cc3ccccc3)C(N)=O)CC2)cc1F [Compound 55] ({DOTA-Ahx}-F[azaGly]L[Api](Gly(N-(3-F-4-Me-benzyl)))F-NH2)
< 10 | Cc1ccc(CNCC(=O)N2CCC(NC(=O)[C@H](CC(C)C)NC(=O)NNC(=O)[C@H](Cc3ccccc3)NC(=O)[C@@H](NC(=O)[C@H](CC(N)=O)NC(=O)[C@@H](Cc3c[nH]c4ccccc34)NC(=O)[C@@H](Cc3ccc(O)cc3)NC(=O)COCCOCCNC(=O)CN3CCN(CC(=O)O)CCN(CC(=O)O)CCN(CC(=O)O)CC3)[C@@H](C)O)(C(=O)N[C@@H](Cc3c[nH]c4ccccc34)C(N)=O)CC2)cc1F [Compound 57] ({DOTA-AEEA}-[dY][dW]NTF[azaGly]L[Api](Gly(N-(3-F-4-Me-benzyl)))W-NH2)
< 10 | Cc1ccc(CNCC(=O)N2CCC(NC(=O)[C@H](CC(C)C)NC(=O)NNC(=O)[C@H](Cc3ccccc3)NC(=O)[C@@H](NC(=O)[C@H](CC(N)=O)NC(=O)[C@H](Cc3ccc4ccccc4c3)NC(=O)[C@@H](Cc3ccc(O)cc3)NC(=O)COCCOCCNC(=O)CN3CCN(CC(=O)O)CCN(CC(=O)O)CCN(CC(=O)O)CC3)[C@@H](C)O)(C(=O)N[C@@H](Cc3c[nH]c4ccccc34)C(N)=O)CC2)cc1F [Compound 58] ({DOTA-AEEA}-[dY][2Nal]NTF[azaGly]L[Api](Gly(N-(3-F-4-Me-benzyl)))W-NH2)
< 10 | Cc1ccc(CNCC(=O)N2CCC(NC(=O)[C@H](CC(C)C)NC(=O)NNC(=O)[C@H](Cc3cccc(F)c3)NC(=O)[C@@H](NC(=O)[C@H](CC(N)=O)NC(=O)[C@H](CCCCNC(=O)CN3CCN(CC(=O)O)CCN(CC(=O)O)CCN(CC(=O)O)CC3)NC(=O)[C@@H](Cc3ccc(O)cc3)NC(=O)COCCOCCO)[C@@H](C)O)(C(=O)N[C@@H](Cc3c[nH]c4ccccc34)C(N)=O)CC2)cc1F [Compound 64] ({Acetyl(2-(HOCH2CH2OCH2CH2O))}-[dY]K(DOTA)NT[Phe(3-F)][azaGly]L[Api](Gly(N-(3-F-4-Me-benzyl)))W-NH2)
< 10 | CNC(=N)N1CCC(NC(=O)[C@H](CC(C)C)NC(=O)NNC(=O)[C@H](Cc2ccccc2)NC(=O)[C@@H](NC(=O)[C@H](CC(N)=O)NC(=O)[C@@H](Cc2c[nH]c3ccccc23)NC(=O)[C@@H](Cc2ccc(O)cc2)NC(=O)CCCCCNC(=O)CN2CCN(CC(=O)O)CCN(CC(=O)O)CCN(CC(=O)O)CC2)[C@@H](C)O)(C(=O)N[C@@H](Cc2c[nH]c3ccccc23)C(N)=O)CC1 [Compound 91] ({DOTA-Ahx}-[dY][dW]NTF[azaGly]L[X3]W-NH2)
< 10 | Cc1ccc(CNCC(=O)N2CCC(NC(=O)[C@H](CC(C)C)NC(=O)NNC(=O)[C@H](Cc3ccccc3)NC(=O)[C@@H](NC(=O)[C@H](CC(N)=O)NC(=O)[C@@H](Cc3c[nH]c4ccccc34)NC(=O)[C@@H](Cc3ccc(O)cc3)NC(=O)CCCCCNC(=O)CN3CCN(CC(=O)O)CCN(CC(=O)O)CCN(CC(=O)O)CC3)[C@@H](C)O)(C(=O)N[C@@H](Cc3ccc(C#N)cc3)C(N)=O)CC2)cc1F [Compound 104] ({DOTA-Ahx}-[dY][dW]NTF[azaGly]L[Api](Gly(N-(3-F-4-Me-benzyl)))[Phe(4-CN)]-NH2)
